Blank lines part the entries; values can stand above or below the molecule they belong to.
Key:
[1] = molecular target: T1, Solute carrier organic anion transporter family member 4C1 (Homo sapiens, UniProt Q6ZQN7); assay: TP_TRANSPORTER: inhibition of Digoxin uptake in OATP4C1-expressing MDCK cells; assay type: functional, cell-based
T1 sequence (Q6ZQN7 whole entry): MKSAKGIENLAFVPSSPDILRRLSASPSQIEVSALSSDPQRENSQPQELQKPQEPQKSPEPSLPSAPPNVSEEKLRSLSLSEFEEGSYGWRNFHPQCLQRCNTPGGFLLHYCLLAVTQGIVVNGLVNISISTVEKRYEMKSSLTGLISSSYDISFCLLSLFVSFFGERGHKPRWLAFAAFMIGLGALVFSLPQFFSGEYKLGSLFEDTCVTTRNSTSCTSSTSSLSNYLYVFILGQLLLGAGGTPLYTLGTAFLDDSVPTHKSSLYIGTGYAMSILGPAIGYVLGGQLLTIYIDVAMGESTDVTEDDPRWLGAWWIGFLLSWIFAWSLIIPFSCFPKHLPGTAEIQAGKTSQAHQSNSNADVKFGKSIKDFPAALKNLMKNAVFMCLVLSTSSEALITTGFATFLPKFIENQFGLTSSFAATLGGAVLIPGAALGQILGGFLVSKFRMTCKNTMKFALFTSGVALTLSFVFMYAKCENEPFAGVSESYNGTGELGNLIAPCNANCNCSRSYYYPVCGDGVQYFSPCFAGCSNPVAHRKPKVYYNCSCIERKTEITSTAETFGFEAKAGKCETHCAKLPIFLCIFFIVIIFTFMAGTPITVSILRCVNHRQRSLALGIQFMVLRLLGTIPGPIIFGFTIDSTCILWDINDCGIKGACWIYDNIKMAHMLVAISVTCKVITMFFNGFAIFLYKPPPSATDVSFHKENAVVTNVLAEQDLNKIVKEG

[2] = molecular target: T1, Solute carrier organic anion transporter family member 4C1; assay: TP_TRANSPORTER: inhibition of Triiodothyronine uptake in OATP4C1-expressing MDCK cells; assay type: functional, cell-based
[3] = substrate: C[C@H]1O[C@@H](O[C@H]2[C@@H](O)C[C@H](O[C@H]3[C@@H](O)C[C@H](O[C@H]4CC[C@@]5(C)[C@H](CC[C@@H]6[C@@H]5C[C@@H](O)[C@]5(C)[C@@H](C7=CC(=O)OC7)CC[C@]65O)C4)O[C@@H]3C)O[C@@H]2C)C[C@H](O)[C@@H]1O; assay: cells, lysate or membranes named
Description: (§1) TP_TRANSPORTER: cell accumulation in OATP4C1-expressing MDCK cells

[4] = substrate: N[C@@H](Cc1cc(I)c(Oc2ccc(O)c(I)c2)c(I)c1)C(=O)O; assay: cells, lysate or membranes named
Description: as §1

Molecule: C[C@H]1O[C@@H](O[C@H]2[C@@H](O)C[C@H](O[C@H]3[C@@H](O)C[C@H](O[C@H]4CC[C@@]5(C)[C@H](CC[C@@H]6[C@@H]5CC[C@]5(C)[C@@H](C7=CC(=O)OC7)CC[C@]65O)C4)O[C@@H]3C)O[C@@H]2C)C[C@H](O)[C@@H]1O [DIGITOXIN]
IC50 [1]: 120 nM

Molecule: C[C@]12CC[C@H](O)C[C@H]1CC[C@@H]1[C@@H]2C[C@@H](O)[C@]2(C)[C@@H](C3=CC(=O)OC3)CC[C@]12O [DIGOXIGENIN]
IC50 [1]: 490 nM

IC50 [2]: 8 µM
Molecule: N[C@@H](Cc1cc(I)c(Oc2cc(I)c(O)c(I)c2)c(I)c1)C(=O)O [LEVOTHYROXINE]

B1: Solute carrier organic anion transporter family member 4C1 (Homo sapiens) (protein)
chain: T1 sequence (Q6ZQN7 whole entry)
Km [3]: 7.8 µM
Km [4]: 5.9 µM

— ChEMBL document CHEMBL2074326 (Proc Natl Acad Sci U S A, 2004)
